Values quoted from earlier work, collected in PMC9393241, “Design, Synthesis, and Activity Assays of Cyclin-Dependent Kinase 1 Inhibitors With Flavone Scaffolds” (Frontiers in Chemistry, 2022).

Biological target: CDK1/cyclin B kinase
Parameters: method as in Mou et al., 2021a
Conditions: ref Mou et al., 2021a; read-out: IC50 against CDK1/cyclin B kinase; cited from earlier work

Compound: C=C(C)C(=O)Oc1c(O)c(O)c2c(=O)cc(-c3ccccc3)oc2c1CN1CCN(C)CC1 [pro3o]
- IC50: 1260 nM
